Values joined by “and” are separate entries in the source; they are usually repeats but may differ in a detail not shown here. Identical values can stand only once.
Biological target: T1, NS3 protease (dengue virus type 4, UniProt A0A0K0TQ36)
T1 sequence (A0A0K0TQ36 whole entry): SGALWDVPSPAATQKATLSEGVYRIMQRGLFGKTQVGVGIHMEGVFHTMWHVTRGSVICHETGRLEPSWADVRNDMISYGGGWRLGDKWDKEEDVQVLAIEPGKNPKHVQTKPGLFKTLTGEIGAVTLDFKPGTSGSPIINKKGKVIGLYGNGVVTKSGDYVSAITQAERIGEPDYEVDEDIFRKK
Test: Functional biochemical assay to identify treatments for viral infectious disease that targets Dengue virus type 4 NS2B-NS3 protease. Utilizing a direct enzyme activity measurement method, reading the fluorescence intensity is used to characterize the relative potency of inhibitors as IC50.
Design: species or system Philippines/H241/1956

Compound	IC50
CC(C)NC(=O)[C@H](Nc1ccc2c(c1)CNC2)c1cc(Cl)cc2[nH]ncc12	49.8 µM
O=C(Nc1ccc2c(c1)CNC2)c1cc(Br)cc2[nH]c(-c3ccccc3)nc12	2.96 µM
NCCc1csc2cc(C(=O)Nc3cc([C@H]4CCOC4)ccn3)ccc12	> 99.5 µM
O=C(Nc1ccc2c(c1)CNC2)c1cccc2[nH]c(C(F)(F)F)cc12	> 99.5 µM
N#Cc1cccc(-c2nc3c(C(=O)Nc4ccc5c(c4)CNC5)cc(F)cc3[nH]2)c1	2.86 µM
O=C(Nc1ccc2c(c1)CNC2)c1ccc2[nH]cc(C3CCNCC3)c2c1	36.7 µM
N#Cc1ccc(-c2nc3c(C(=O)Nc4ccc5c(c4)CNC5)cc(F)cc3[nH]2)cc1	1.92 µM
COc1cccc(-c2nc3c(C(=O)Nc4ccc5c(c4)CNC5)cc(F)cc3[nH]2)c1	5.32 µM
CC(C)c1nnc(-c2nc3c(C(=O)Nc4ccc5c(c4)CNC5)cc(F)cc3[nH]2)s1	9.86 µM
C=CC[C@H]1NCc2cc(NC(=O)c3cc(Cl)cc4[nH]ncc34)ccc21	> 99.5 µM
NCc1cccc(-c2csc3cc(C(=O)Nc4ccc5c(c4)CNC5)ccc23)c1	43.7 µM
O=C(Nc1ccc2c(c1)CNC2)c1cc(F)cc2[nH]c(-c3cccc(F)c3)nc12	3.73 µM
N#Cc1cc2c(cc1NC(=O)c1cc(F)cc3[nH]ncc13)CNC2	36.9 µM
O=C(Nc1ccc2c(c1)CNC2)c1cc(Cl)cc2cc[nH]c12	> 99.5 µM
Cc1cccc(-c2nc3c(C(=O)Nc4ccc5c(c4)CNC5)cc(F)cc3[nH]2)c1	5.9 µM
Cc1ccccc1-c1nc2c(C(=O)Nc3ccc4c(c3)CNC4)cc(F)cc2[nH]1	3.24 µM
O=C(Nc1ccc2c(c1)CNC2)c1ccc2c(C3=CCNCC3)csc2c1	70 µM

Compound	IC50
O=C(Nc1ccc2c(c1)CNC2)c1cc(F)cc2[nH]c(-c3ccccc3F)nc12	5.23 µM
NCc1ccc(-c2csc3cc(C(=O)Nc4ccc5c(c4)CNC5)ccc23)cc1	53.2 µM
NCc1csc2cc(C(=O)Nc3ccc4c(c3)CNC4)ccc12	11.8 µM
Cn1c(=O)[nH]c2c(C(=O)Nc3ccc4c(c3)CNC4)cc(Br)cc21	> 99.5 µM
O=C(Nc1ccc2c(c1)CNC2)c1cc(F)cc2c1CCC2	> 99.5 µM
O=C(Nc1ccc2c(c1)CNC2)c1cccc2c(C3CNC3)n[nH]c12	32.2 µM
O=C(Nc1ccc2c(c1)CNC2)c1cc(Cl)cc(C(F)(F)F)n1	23 µM
O=C(Nc1ccc2c(c1)CNC2)c1cc(F)cc2[nH]c(-c3ccc(F)cc3)nc12	3.65 µM
O=C(Nc1ccc2c(c1)CNC2)c1cccc2nc(O)ccc12	> 99.5 µM
COc1cc(-c2cc(NC(=O)c3cc(F)cc4[nH]ncc34)cc3c2CNC3)ccn1	42.5 µM
CC(C)(c1nc2c(C(=O)Nc3ccc4c(c3)CNC4)cc(F)cc2[nH]1)S(C)(=O)=O	18 µM
O=C1Cc2cc(C(=O)Nc3ccc4c(c3)CNC4)ccc2N1	14 µM and 8.21 µM
NCCc1csc2cc(C(=O)Nc3ccc4c(c3)CNC4)ccc12	> 99.5 µM
O=C(Nc1ccc2c(c1)CNC2)c1cccc2cn[nH]c12	45 µM
O=C(Nc1ccc2c(c1)CNC2)c1ccc2[nH]ccc2c1	> 99.5 µM
O=C(Nc1cc2c(c(C3=CCS(=O)(=O)CC3)c1)CNC2)c1cc(F)cc2[nH]ncc12	50 µM
O=C(Nc1cc2c(c(C3=CCOCC3)c1)CNC2)c1cc(F)cc2[nH]ncc12	29.9 µM

Reference: ChEMBL document CHEMBL5604066, “ASAP - DENV-4 NS2B-NS3 protease fluorescence dose response” (2024)
